Test results published in publication PMC7909954 (eLife, 2021).
Where “and” joins values, the source holds several entries; their conditions need not be identical. Equal values may be shown once. Read-outs that look alike come from different tables or passages of the source.

Key:
MOR [1] = target: T1, MOR (Homo sapiens, UniProt P35372)
KOR [2] = target: T2, KOR (Homo sapiens, UniProt P41145); conditions: for Bias factor (cAMP-Tango) hKOR: >1 G protein bias, <1 arrestin bias; for Bias factor (cAMP-Tango) hKOR / ΔlogRA Tango hKOR / ΔlogRA cAMP hKOR: vs U50,488h; for Log RA cAMP hKOR / LogRA Tango hKOR: transduction coefficient log(T/KA)
rKOR [3] = target: T3, rKOR (Rattus norvegicus, UniProt P34975)
MOR [4] = target: T1, MOR; assay: cell-based; conditions: for Emax: HEK-293T, read-out: Emax% cAMP inhibition hMOR
KOR [5] = target: T2, KOR; assay: cell-based
DOR [6] = target: T4, DOR (Homo sapiens, UniProt P41143); assay: cell-based; conditions: for EC50: EC50 cAMP inhibition hDOR; for Emax: HEK-293T, read-out: Emax% cAMP inhibition hDOR
MOR [7] = target: T1, MOR; assay: cell-based; conditions: for Emax: HTLA, read-out: Emax% arrestin recruitment (Tango) hMOR
KOR [8] = target: T2, KOR; assay: cell-based; conditions: for EC50: EC50 arrestin recruitment (Tango) hKOR; for Emax: HTLA, read-out: Emax% arrestin recruitment (Tango) hKOR
DOR [9] = target: T4, DOR; assay: cell-based; conditions: for EC50: EC50 arrestin recruitment hDOR, Tango; for Emax: HTLA, read-out: Emax% arrestin recruitment hDOR
mMOR [10] = target: T5, mMOR (Mus musculus, UniProt P42866); assay: cell-based; conditions: for Emax: HEK-293T, read-out: Emax% G protein activation (BRET) mMOR
rKOR [11] = target: T3, rKOR; assay: cell-based; conditions: HEK-293T, read-out: Emax% G protein activation (BRET) rKOR
mDOR [12] = target: T6, mDOR (Mus musculus, UniProt P32300); assay: cell-based; conditions: for EC50: EC50 G protein activation (BRET) mDOR; for Emax: HEK-293T, read-out: Emax% G protein activation (BRET) mDOR
rKOR [13] = target: T3, rKOR; assay: cell-based; conditions: HEK-293T, read-out: Emax% arrestin recruitment (BRET) rKOR
mMOR [14] = target: T5, mMOR; assay: biochemical
mDOR [15] = target: T6, mDOR; assay: cell-based; conditions: for EC50: EC50 arrestin recruitment (BRET) mDOR; for Emax: HEK-293T, read-out: Emax% arrestin recruitment (BRET) mDOR
mKOR [16] = target: T7, mKOR (Mus musculus, UniProt P33534); assay: biochemical
mMOR [17] = target: T5, mMOR; assay: biochemical; conditions: for EC50: EC50 mMOR [35S]GTPγS, ± SEM; for Emax: read-out: Emax mMOR [35S]GTPγS
mKOR [18] = target: T7, mKOR; assay: biochemical; conditions: for EC50: EC50 mKOR [35S]GTPγS, ± SEM; for Emax: read-out: Emax mKOR [35S]GTPγS
mDOR [19] = target: T6, mDOR; assay: biochemical; conditions: read-out: Emax mDOR [35S]GTPγS
mMOR [20] = target: T5, mMOR; assay: cell-based; parameters: expressed in transfected cells; host or cells: HEK-293T
mMOR [21] = target: T5, mMOR; type: cell-based; parameters: expressed in transfected cells; host or cells: HEK-293T
[22] = EC50 G protein activation (BRET) mMOR

T3 sequence (P34975 whole entry): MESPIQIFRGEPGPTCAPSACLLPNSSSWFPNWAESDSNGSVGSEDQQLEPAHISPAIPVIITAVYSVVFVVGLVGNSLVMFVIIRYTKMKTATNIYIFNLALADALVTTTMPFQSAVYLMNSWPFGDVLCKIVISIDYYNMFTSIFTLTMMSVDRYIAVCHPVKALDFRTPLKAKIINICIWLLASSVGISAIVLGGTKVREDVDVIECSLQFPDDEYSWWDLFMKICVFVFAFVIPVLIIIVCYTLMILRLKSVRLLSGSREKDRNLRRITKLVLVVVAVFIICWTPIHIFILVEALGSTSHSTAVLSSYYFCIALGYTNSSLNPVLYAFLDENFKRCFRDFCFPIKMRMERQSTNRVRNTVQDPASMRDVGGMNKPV
T2 sequence (P41145 whole entry): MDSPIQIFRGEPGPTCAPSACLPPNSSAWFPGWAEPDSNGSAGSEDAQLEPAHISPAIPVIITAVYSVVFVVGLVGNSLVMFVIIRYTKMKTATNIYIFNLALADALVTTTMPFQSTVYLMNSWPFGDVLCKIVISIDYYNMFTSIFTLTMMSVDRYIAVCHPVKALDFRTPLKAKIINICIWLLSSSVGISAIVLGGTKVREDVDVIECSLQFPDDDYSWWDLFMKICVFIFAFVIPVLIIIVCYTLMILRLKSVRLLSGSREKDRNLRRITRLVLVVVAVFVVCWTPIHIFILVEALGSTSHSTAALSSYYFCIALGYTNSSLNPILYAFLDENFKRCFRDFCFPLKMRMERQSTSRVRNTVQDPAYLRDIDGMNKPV
T5 sequence (P42866 whole entry): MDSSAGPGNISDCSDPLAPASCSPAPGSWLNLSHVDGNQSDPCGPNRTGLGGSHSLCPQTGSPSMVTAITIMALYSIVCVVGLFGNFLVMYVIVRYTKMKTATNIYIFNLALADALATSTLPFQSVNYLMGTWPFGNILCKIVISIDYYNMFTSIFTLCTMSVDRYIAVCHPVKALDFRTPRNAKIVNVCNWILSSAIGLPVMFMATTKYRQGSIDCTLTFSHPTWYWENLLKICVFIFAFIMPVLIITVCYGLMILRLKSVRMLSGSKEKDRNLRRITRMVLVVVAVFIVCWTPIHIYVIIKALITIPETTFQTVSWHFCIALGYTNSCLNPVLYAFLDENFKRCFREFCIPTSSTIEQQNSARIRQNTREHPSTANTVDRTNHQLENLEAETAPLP
T6 sequence (P32300 whole entry): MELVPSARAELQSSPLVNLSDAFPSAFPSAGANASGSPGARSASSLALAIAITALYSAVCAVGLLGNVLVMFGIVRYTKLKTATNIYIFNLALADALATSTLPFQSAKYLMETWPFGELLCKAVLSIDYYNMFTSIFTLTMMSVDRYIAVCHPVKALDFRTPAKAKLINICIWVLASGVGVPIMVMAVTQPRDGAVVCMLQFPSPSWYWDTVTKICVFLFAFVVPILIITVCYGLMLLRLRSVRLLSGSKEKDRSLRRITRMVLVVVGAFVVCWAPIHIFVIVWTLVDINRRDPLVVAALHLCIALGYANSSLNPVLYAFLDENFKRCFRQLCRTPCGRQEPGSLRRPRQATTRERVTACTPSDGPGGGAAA
T7 sequence (P33534 whole entry): as the sequence (P34975 whole entry) above, with E11D, A17S, P51S, V308A counted along it
T1 sequence (P35372 whole entry): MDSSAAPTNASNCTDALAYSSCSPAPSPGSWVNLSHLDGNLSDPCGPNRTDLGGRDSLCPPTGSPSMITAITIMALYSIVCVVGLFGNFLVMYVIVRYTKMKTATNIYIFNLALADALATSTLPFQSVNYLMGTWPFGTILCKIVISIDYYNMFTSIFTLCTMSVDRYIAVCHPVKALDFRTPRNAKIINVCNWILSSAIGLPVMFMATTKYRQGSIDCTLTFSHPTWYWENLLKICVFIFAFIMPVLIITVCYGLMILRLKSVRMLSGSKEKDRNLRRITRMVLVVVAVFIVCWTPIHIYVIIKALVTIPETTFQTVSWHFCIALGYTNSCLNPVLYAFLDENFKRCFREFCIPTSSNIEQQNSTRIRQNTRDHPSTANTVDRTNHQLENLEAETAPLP
T4 sequence (P41143 whole entry): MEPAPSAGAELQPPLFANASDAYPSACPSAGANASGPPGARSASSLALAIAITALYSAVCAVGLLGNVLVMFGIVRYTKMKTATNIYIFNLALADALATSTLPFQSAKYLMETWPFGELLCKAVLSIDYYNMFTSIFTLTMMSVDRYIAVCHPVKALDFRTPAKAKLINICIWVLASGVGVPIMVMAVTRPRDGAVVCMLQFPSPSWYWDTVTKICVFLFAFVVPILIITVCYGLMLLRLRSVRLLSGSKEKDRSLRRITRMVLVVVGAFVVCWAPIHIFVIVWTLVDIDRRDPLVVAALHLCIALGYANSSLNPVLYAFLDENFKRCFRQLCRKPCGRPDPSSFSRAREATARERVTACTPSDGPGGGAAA

Compound: O=C(NC1C=CC2C3Cc4ccc(O)c5c4C2(CCN3CC2CC2)C1O5)c1cccc(I)c1 (centres unmarked) [MP1104]
- Bias factor (cAMP-Tango) hMOR (MOR [1]): 0.58
- Log RA cAMP hMOR (MOR [1]): 10.12±0.009
- LogRA Tango hMOR (MOR [1]): 9.18±0.013
- ΔlogRA Tango hMOR (MOR [1]): 1.26±0.019
- ΔlogRA cAMP hMOR (MOR [1]): 1.018±0.012
- ΔΔlog RA (cAMP-Tango) hMOR (MOR [1]): -0.24±0.022
- ΔΔlog RA (cAMP-Tango) hKOR (KOR [2]): -0.81±0.055
- Bias factor (cAMP-Tango) hKOR (KOR [2]): 0.15
- Log RA cAMP hKOR (KOR [2]): 11.44±0.034
- LogRA Tango hKOR (KOR [2]): 10.45±0.019
- ΔlogRA Tango hKOR (KOR [2]): 2.16±0.027
- ΔlogRA cAMP hKOR (KOR [2]): 1.35±0.048
- Log RA BRET-G rKOR (rKOR [3]): 10.07±0.047
- LogRA BRET-Arr rKOR (rKOR [3]): 8.84±0.033
- ΔΔlog RA (BRETG-BRETArr) rKOR (rKOR [3]): -0.64±0.079
- Bias factor (BRETG-BRETArr) rKOR (rKOR [3]; vs U50,488h): 0.23
- ΔlogRA BRET-G rKOR (rKOR [3]; vs U50,488h): 1.067±0.064
- ΔlogRA BRET-arr rKOR (rKOR [3]; vs U50,488h): 1.702±0.047
- EC50 (MOR [4]; EC50 cAMP inhibition hMOR): 0.074 nM
- Emax (MOR [4]): 94 ± 1%
- EC50 (KOR [5]; EC50 cAMP inhibition hKOR): 0.00327 nM
- EC50 (DOR [6]): 0.4 nM
- Emax (DOR [6]): 99 ± 1.1%
- EC50 (MOR [7]): 0.573 nM
- Emax (MOR [7]): 90 ± 2.28%
- EC50 (KOR [8]): 0.0394 nM
- Emax (KOR [8]): 117 ± 2%
- EC50 (DOR [9]): 3.73 nM
- Emax (DOR [9]): 189 ± 5.5%
- EC50 (mMOR [10]; [22]): 0.66 nM
- Emax (mMOR [10]): 62 ± 2%
- Emax (rKOR [11]): 93 ± 1%
- EC50 (mDOR [12]): 1.4 nM
- Emax (mDOR [12]): 91 ± 1.7%
- Emax (rKOR [13]): 89 ± 2.6%
- Ki (mMOR [14]): 0.021 nM
- EC50 (mDOR [15]): 26 nM
- Emax (mDOR [15]): 40 ± 1.7%
- Ki (mKOR [16]): 0.0064 nM
- EC50 (mMOR [17]): 0.21 ± 0.03 nM
- Emax (mMOR [17]): 103 ± 2%
- EC50 (mKOR [18]): 0.027 ± 0.002 nM
- Emax (mKOR [18]): 104 ± 2%
- Emax (mDOR [19]): 88%
- EC50 (mMOR [20]): 0.285 nM
- Emax (mMOR [20]; HEK-293T, read-out: Emax% arrestin recruitment (BRET) mMOR): 53 ± 1.6%
- Bias factor (BRETG-BRETArr) mMOR (mMOR [21]): 0.11
- Log RA BRET-G mMOR (mMOR [21]): 8.917±0.12
- LogRA BRET-Arr mMOR (mMOR [21]): 9.196±0.06
- ΔlogRA BRET-G mMOR (mMOR [21]): 0.357±0.173
- ΔlogRA BRET-arr mMOR (mMOR [21]): 1.323±0.09
- ΔΔlog RA (BRETG-BRETArr) mMOR (mMOR [21]): -0.966±0.195

Compound: O=C(N[C@@H]1CC[C@@]2(O)C3Cc4ccc(O)cc4[C@@]2(CCN3CC2CC2)C1)c1cccc(I)c1 [MP1601, N-((4bR,6R,8aS)−11-(Cyclopropylmethyl)−3,8a-dihydroxy-6,7,8,8a,9,10-hexahydro-5H-9,4b-(epiminoethano)phenanthren-6-yl)−3-iodobenzamide]
- Bias factor (cAMP-Tango) hMOR (MOR [1]): 4
- Log RA cAMP hMOR (MOR [1]): 9.84±0.002
- LogRA Tango hMOR (MOR [1]): 7.65±0.035
- ΔlogRA Tango hMOR (MOR [1]): 0.87±0.036
- ΔlogRA cAMP hMOR (MOR [1]): 1.44±0.002
- ΔΔlog RA (cAMP-Tango) hMOR (MOR [1]): 0.57±0.036
- ΔΔlog RA (cAMP-Tango) hKOR (KOR [2]): -0.282±0.023
- Bias factor (cAMP-Tango) hKOR (KOR [2]): 0.5 and 0.52
- Log RA cAMP hKOR (KOR [2]): 9.85±0.014
- LogRA Tango hKOR (KOR [2]): 8.51±0.009
- ΔlogRA Tango hKOR (KOR [2]): 0.097±0.012
- ΔlogRA cAMP hKOR (KOR [2]): -0.19±0.020
- Log RA BRET-G rKOR (rKOR [3]): 7.917±0.018
- LogRA BRET-Arr rKOR (rKOR [3]): 7.113±0.052
- ΔΔlog RA (BRETG-BRETArr) rKOR (rKOR [3]): -0.006±0.057
- ΔlogRA BRET-G rKOR (rKOR [3]; vs U50,488h): 0.324±0.052
- ΔlogRA BRET-arr rKOR (rKOR [3]; vs U50,488h): 0.33±0.052
- EC50 (MOR [4]; EC50 cAMP inhibition hMOR): 0.1 nM
- Emax (MOR [4]): 69 ± 1%
- EC50 (MOR [4]; pEC50 cAMP inhibition hMOR): 0.102 nM
- Emax (KOR [5]; HEK-293T, read-out: Emax% cAMP inhibition hKOR): 109 ± 1%
- EC50 (KOR [5]; pEC50 cAMP inhibition hKOR, ± SEM): 0.174 nM
- EC50 (DOR [6]): 2.76 nM
- Emax (DOR [6]): 106 ± 2.3%
- EC50 (MOR [7]): 4.02 nM
- Emax (MOR [7]): 27 ± 2%
- EC50 (KOR [8]): 3.23 nM
- Emax (KOR [8]): 107 ± 3%
- EC50 (DOR [9]): 86.7 nM
- Emax (DOR [9]): 203 ± 5.4%
- EC50 (mMOR [10]; [22]): 2.2 nM
- Emax (mMOR [10]): 49 ± 3%
- EC50 (mMOR [10]; pEC50 G protein activation (BRET) mMOR): 2.51 nM
- Emax (rKOR [11]): 75 ± 3%
- EC50 (mDOR [12]): 6.27 nM
- Emax (mDOR [12]): 105 ± 6.7%
- Emax (rKOR [13]): 37 ± 3%
- Ki (mMOR [14]): 0.2 ± 0.01 nM
- EC50 (mDOR [15]): 9 nM
- Emax (mDOR [15]): 16 ± 1.4%
- Ki (mKOR [16]): 2.13 ± 0.3 nM
- EC50 (mMOR [17]): 0.5 ± 0.2 nM
- Emax (mMOR [17]): 45 ± 4.6%
- EC50 (mKOR [18]): 3 ± 0.7 nM
- Emax (mKOR [18]): 72 ± 4.5%
- Emax (mDOR [19]): 67 ± 3.9%
